Test results published in patent US20170305922A1, “CARM1 INHIBITORS AND USES THEREOF” (Epizyme, Inc., priority 2014, published 2017).

Key:
[1] = biological target: T1, Human CARM1 (PRMT4) (Homo sapiens, UniProt Q86X55); test: CARM1 enzyme assay on peptide substrates (3H-SAM Flashplate); conditions: Biochemical assay; CARM1 0.25 nM, 3H-SAM 30 nM, peptide 250 nM; read-out: Biochem IC50
T1 construct: Flag-CARM1-His was eluted with 200 ug/ml FLAG peptide in buffer A; made in house; host or cells: HEK 293F cells infected with recombinant baculovirus (pFastBacMam)
T1 sequence (Q86X55 1-585 isoform Q86X55-1): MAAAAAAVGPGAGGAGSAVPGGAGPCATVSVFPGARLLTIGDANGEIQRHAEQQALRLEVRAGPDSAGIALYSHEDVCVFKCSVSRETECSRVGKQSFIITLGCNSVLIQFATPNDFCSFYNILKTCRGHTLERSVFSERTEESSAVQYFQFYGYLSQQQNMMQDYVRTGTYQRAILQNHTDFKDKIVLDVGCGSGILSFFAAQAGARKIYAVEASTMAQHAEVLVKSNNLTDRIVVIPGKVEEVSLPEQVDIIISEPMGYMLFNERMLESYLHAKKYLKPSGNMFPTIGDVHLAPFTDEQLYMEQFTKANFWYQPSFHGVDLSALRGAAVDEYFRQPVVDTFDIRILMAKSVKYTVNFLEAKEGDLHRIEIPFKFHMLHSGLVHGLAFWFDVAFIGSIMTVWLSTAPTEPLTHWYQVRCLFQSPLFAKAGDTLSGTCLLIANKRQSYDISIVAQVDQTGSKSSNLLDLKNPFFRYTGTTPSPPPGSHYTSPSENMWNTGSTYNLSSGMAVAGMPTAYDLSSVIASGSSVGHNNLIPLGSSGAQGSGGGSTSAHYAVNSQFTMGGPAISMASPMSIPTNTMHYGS

[2] = system: asymmetric di-methyl PABP1 in RKO cells; test: RKO methylation assay: In Cell Western (ICW) for asymmetric di-methyl PABP1 (PABP1me2a); conditions: Homo sapiens, RKO, 48 h, Cellular-based (PABP1me2a) ICW (In Cell Western) assay
In short: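 In-cell western on compound-exposed RKO cells (48 hours): asymmetric di-methyl PABP1 detected by antibody at 800 nm, DNA content by DRAQ5 at 700 nm. Percent inhibition from signal ratios against DMSO (minimum) and 20 μM reference compound (maximum) wells; IC50 curves fitted from triplicates.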

| Structure (SMILES) | IC50 [1] [nM] | IC50 [2] [nM] |
| --- | --- | --- |
| CCC1(C(=O)N(C)C)CN(c2nc(-c3cc(OC[C@H](O)CNC)ccc3Cl)nc(-c3c(C)noc3C)c2C)C1 [Example 190] | 6.2 | 138 |
| CNC[C@@H](O)COc1ccc(Cl)c(-c2nc(-c3c(C)noc3C)c(C)c(N3CC4(CCN(C(=O)OCC(F)F)CC4)C3)n2)c1 [Example 191] | 10.5 | 174 |
| CNC[C@@H](O)COc1ccc(Cl)c(-c2nc(-c3c(C)c(Cl)nn3C)c(C)c(N3CC4(CCN(C(=O)OC)CC4)C3)n2)c1 [Example 192] | 4.7 | 58 |
| CNC[C@@H](O)COc1ccc(Cl)c(-c2nc(-c3c(C)c(Cl)nn3C)c(C)c(N3CC4(CC(OC)C4)C3)n2)c1 [Example 193] | 4.1 | 52 |
| CNC[C@@H](O)COc1ccc(Cl)c(-c2nc(-c3c(C)noc3C)c(C)c(N3Cc4cnc(N5CC[C@H]5C)nc4C3)n2)c1 [Example 194] | 1.8 | 13 |
| CNC[C@@H](O)COc1ccc(Cl)c(-c2nc(-c3c(C)noc3C)c(C)c(N3Cc4cnc(N5CC[C@@H]5C)nc4C3)n2)c1 [Example 195] | 1.8 | 13 |
| CNC[C@@H](O)COc1ccc(Cl)c(-c2nc(-c3c(C)noc3C)c(C)c(N3Cc4ccc(N5CCOCC5)nc4C3)n2)c1 [Example 196] | 2 | 20 |
| CNC[C@@H](O)COc1ccc(Cl)c(-c2nc(-c3c(C)noc3C)c(C)c(N3Cc4cnc(NCCO)nc4C3)n2)c1 [Example 197] | 2.6 | 381 |
| CNC[C@@H](O)COc1ccc(Cl)c(-c2nc(-c3c(C)noc3C)c(C)c(N3CC4=C(C3)CN(c3nc(-c5cc(OC[C@H](O)CNC)ccc5Cl)nc(-c5c(C)noc5C)c3C)C4)n2)c1 [Example 198] | 0.4 | 171 |
| CCOc1ncc2c(n1)CN(c1nc(-c3cc(OC[C@H](O)CNC)ccc3Cl)nc(-c3c(C)noc3CC)c1C)C2 [Example 199] | 5.7 | 84 |
| CNC[C@@H](O)COc1ccc(Cl)c(-c2nc(-c3c(C)noc3C)c(C)c(N3Cc4ccnc(C)c4C3)n2)c1 [Example 200] | 2.1 | 47 |
| CNC[C@@H](O)COc1ccc(Cl)c(-c2nc(-c3c(C)noc3C)c(C)c(N3CCN(CC(F)(F)F)CC3)n2)c1 [Example 201] | 4.8 | 295 |
| CC[C@@H]1CN(c2nc(-c3cc(OC[C@H](O)CNC)ccc3Cl)nc(-c3c(C)noc3C)c2C)CCN1S(C)(=O)=O [Example 202] | 3.3 | 233 |
| CC[C@@H]1CN(c2nc(-c3cc(OC[C@H](O)CNC)ccc3Cl)nc(-c3c(C)noc3C)c2C)CCN1CC(F)F [Example 203] | 4.6 | 200 |
| CC[C@H]1CN(c2nc(-c3cc(OC[C@H](O)CNC)ccc3Cl)nc(-c3c(C)noc3C)c2C)CCN1S(C)(=O)=O [Example 204] | 4.3 | 486 |
| CC[C@@H]1CN(c2nc(-c3cc(OC[C@H](O)CNC)ccc3Cl)nc(-c3c(C)noc3C)c2C)CCN1C(=O)OC [Example 205] | 3.7 | 202 |
| CC[C@H]1CN(c2nc(-c3cc(OC[C@H](O)CNC)ccc3Cl)nc(-c3c(C)noc3C)c2C)CCN1C(=O)OC [Example 206] | 5.4 | 696 |
| CCc1onc(C)c1-c1nc(-c2cc(OC[C@H](O)CNC)ccc2Cl)nc(N2Cc3cccnc3C2)c1C [Example 207] | 1.5 | 74 |
| CNC[C@@H](O)COc1ccc(Cl)c(-c2nc(-c3c(C)noc3C)c(C)c(N3CC4(C3)CC(OC)(C(F)(F)F)C4)n2)c1 [Example 208] | 5.2 | 142 |
| CNC[C@@H](O)COc1ccc(Cl)c(-c2nc(-c3c(C)noc3C)c(C)c(N3Cc4nccc(N(C)C)c4C3)n2)c1 [Example 209] | 0.6 | 129 |
| CNC[C@@H](O)COc1ccc(Cl)c(-c2nc(-c3c(C)noc3C)c(C)c(N3Cc4nc(C5CC5)oc4C3)n2)c1 [Example 210] | 2.1 | 120 |
| CNC[C@@H](O)COc1ccc(Cl)c(-c2nc(-c3c(C)noc3C)c(C)c(N3CC4=C(C3)CN(C3CC3)C4)n2)c1 [Example 211] | 1.7 | 75 |
| CNC[C@@H](O)COc1ccc(Cl)c(-c2nc(-c3c(C)noc3C)c(C)c(N3Cc4ccnc(OC)c4C3)n2)c1 [Example 212] | 2.1 | 40 |
| CNC[C@@H](O)COc1ccc(Cl)c(-c2nc(-c3c(C)noc3C)c(C)c(N3CC4(C3)CC(O)(C(F)(F)F)C4)n2)c1 [Example 213] | 5.4 | 330 |

| Structure (SMILES) | IC50 [1] [nM] | IC50 [2] [nM] |
| --- | --- | --- |
| CCN(C)c1nccc2c1CN(c1nc(-c3cc(OC[C@H](O)CNC)ccc3Cl)nc(-c3c(C)noc3C)c1C)C2 [Example 214] | 1.1 | 46 |
| CNC[C@@H](O)COc1ccc(Cl)c(-c2nc(-c3c(C)c(Br)nn3C)c(C)c(N3CC4(CN(CC(F)(F)F)C4)C3)n2)c1 [Example 215] | 4.4 | 23 |
| CNC[C@@H](O)COc1ccc(Cl)c(-c2nc(-c3c(C)noc3C)c(C)c(N3CCN(C(=O)OC)CC3)n2)c1 [Example 216] | 5.4 | 415 |
| CNC[C@@H](O)COc1ccc(Cl)c(-c2nc(-c3c(C)noc3C)c(C)c(N3CC4(C3)CC(OC)(C(F)F)C4)n2)c1 [Example 217] | 4.7 | 101 |
| CNC[C@@H](O)COc1ccc(Cl)c(-c2nc(-c3c(C)noc3C)c(C)c(N3CC4(C3)CC(O)(C(F)F)C4)n2)c1 [Example 218] | 6 | 419 |
| CNC[C@@H](O)COc1ccc(Cl)c(-c2nc(-c3c(C)noc3C)c(C)c(N3CC4(CN(C(=O)OCC(F)(F)F)C4)C3)n2)c1 [Example 219] | 5.5 | 129 |
| CNC[C@@H](O)COc1ccc(Cl)c(-c2nc(-c3c(C)noc3C)c(C)c(N3CC4(CN(C(=O)OCC(F)F)C4)C3)n2)c1 [Example 220] | 4.2 | 221 |
| CNC[C@@H](O)COc1ccc(Cl)c(-c2nc(-c3c(C)noc3C)c(C)c(N3Cc4ccc(N5CCC5)nc4C3)n2)c1 [Example 221] | 1.5 | 17 |
| CNC[C@@H](O)COc1ccc(Cl)c(-c2nc(-c3c(C)noc3C)c(C)c(N3CCN(CC(F)F)CC3)n2)c1 [Example 224] | 6.8 | 330 |
| CC[C@H]1CN(c2nc(-c3cc(OC[C@H](O)CNC)ccc3Cl)nc(-c3c(C)noc3C)c2C)CCN1CC(F)F [Example 225] | 9.3 | 445 |
| CCc1noc(C)c1-c1nc(-c2cc(OC[C@H](O)CNC)ccc2Cl)nc(N2Cc3cccnc3C2)c1C [Example 226] | 4.6 | 134 |
| CCc1onc(C)c1-c1nc(-c2cc(OC[C@H](O)CNC)ccc2Cl)nc(N2CC3(CN(CC(F)(F)F)C3)C2)c1C [Example 227] | 8 | 59 |
| CNC[C@@H](O)COc1ccc(Cl)c(-c2nc(-c3c(C)noc3C)c(C)c(N3CC4(CC(OC(F)(F)F)C4)C3)n2)c1 [Example 228] | 4.7 | 73 |
| CNC[C@@H](O)COc1ccc(Cl)c(-c2nc(-c3c(C)noc3C)c(C)c(N3Cc4ccc(N5CC(OC)C5)nc4C3)n2)c1 [Example 229] | 1.9 | 14 |
| CCOC1CC2(C1)CN(c1nc(-c3cc(OC[C@H](O)CNC)ccc3Cl)nc(-c3c(C)noc3C)c1C)C2 [Example 231] | 4.6 | 41 |
| CNC[C@@H](O)COc1ccc(Cl)c(-c2nc(-c3c(C)noc3C)c(C)c(N3CCN(C(=O)OCC(F)F)CC3)n2)c1 [Example 232] | 4.9 | 348 |
| CNC[C@@H](O)COc1ccc(Cl)c(-c2nc(-c3c(C)c(Cl)nn3C)c(C)c(N3CC4(CN(CC(F)(F)F)C4)C3)n2)c1 [Example 233] | 4.3 | 29 |
| CNC[C@@H](O)COc1ccc(Cl)c(-c2nc(-c3c(C)noc3C)c(C)c(N3CC4(CCC(OC(F)(F)F)CC4)C3)n2)c1 [Example 234] | 6.1 | 105 |
| CNC[C@@H](O)COc1ccc(Cl)c(-c2nc(-c3c(C)noc3C)c(C)c(N3Cc4nccc(OCC(F)F)c4C3)n2)c1 [Example 235] | 0.7 | 54 |
| CNC[C@@H](O)COc1ccc(Cl)c(-c2nc(-c3c(C)noc3C)c(C)c(N3Cc4nccc(OC)c4C3)n2)c1 [Example 236] | 1.8 | 63 |
| CNC[C@@H](O)COc1ccc(Cl)c(-c2nc(-c3c(C)noc3C)c(C)c(N3CC4=C(CN(C)CC4)C3)n2)c1 [Example 237] | 0.6 | 157 |
| CNC[C@@H](O)COc1ccc(Cl)c(-c2nc(-c3c(C)c(Br)nn3C)c(C)c(N3CC4(CC(OC(F)(F)F)C4)C3)n2)c1 [Example 238] | 5 | 116 |
| CNC[C@@H](O)COc1ccc(Cl)c(-c2nc(-c3c(C)noc3C)c(C)c(N3CC4(CC(OC(=O)OC)C4)C3)n2)c1 [Example 239] | 4.7 | 52 |
